For the first experiment, the target named is T1, GST-tagged truncated human mutant G2019S LRRK2 (Homo sapiens, UniProt Q5S007, G2019S).
T1 construct: GST-tagged truncated human mutant G2019S LRRK2; purchased Life Technologies Corporation (Carlsbad, CA)
T1 sequence (Q5S007 970-2527 G2019S limits assumed): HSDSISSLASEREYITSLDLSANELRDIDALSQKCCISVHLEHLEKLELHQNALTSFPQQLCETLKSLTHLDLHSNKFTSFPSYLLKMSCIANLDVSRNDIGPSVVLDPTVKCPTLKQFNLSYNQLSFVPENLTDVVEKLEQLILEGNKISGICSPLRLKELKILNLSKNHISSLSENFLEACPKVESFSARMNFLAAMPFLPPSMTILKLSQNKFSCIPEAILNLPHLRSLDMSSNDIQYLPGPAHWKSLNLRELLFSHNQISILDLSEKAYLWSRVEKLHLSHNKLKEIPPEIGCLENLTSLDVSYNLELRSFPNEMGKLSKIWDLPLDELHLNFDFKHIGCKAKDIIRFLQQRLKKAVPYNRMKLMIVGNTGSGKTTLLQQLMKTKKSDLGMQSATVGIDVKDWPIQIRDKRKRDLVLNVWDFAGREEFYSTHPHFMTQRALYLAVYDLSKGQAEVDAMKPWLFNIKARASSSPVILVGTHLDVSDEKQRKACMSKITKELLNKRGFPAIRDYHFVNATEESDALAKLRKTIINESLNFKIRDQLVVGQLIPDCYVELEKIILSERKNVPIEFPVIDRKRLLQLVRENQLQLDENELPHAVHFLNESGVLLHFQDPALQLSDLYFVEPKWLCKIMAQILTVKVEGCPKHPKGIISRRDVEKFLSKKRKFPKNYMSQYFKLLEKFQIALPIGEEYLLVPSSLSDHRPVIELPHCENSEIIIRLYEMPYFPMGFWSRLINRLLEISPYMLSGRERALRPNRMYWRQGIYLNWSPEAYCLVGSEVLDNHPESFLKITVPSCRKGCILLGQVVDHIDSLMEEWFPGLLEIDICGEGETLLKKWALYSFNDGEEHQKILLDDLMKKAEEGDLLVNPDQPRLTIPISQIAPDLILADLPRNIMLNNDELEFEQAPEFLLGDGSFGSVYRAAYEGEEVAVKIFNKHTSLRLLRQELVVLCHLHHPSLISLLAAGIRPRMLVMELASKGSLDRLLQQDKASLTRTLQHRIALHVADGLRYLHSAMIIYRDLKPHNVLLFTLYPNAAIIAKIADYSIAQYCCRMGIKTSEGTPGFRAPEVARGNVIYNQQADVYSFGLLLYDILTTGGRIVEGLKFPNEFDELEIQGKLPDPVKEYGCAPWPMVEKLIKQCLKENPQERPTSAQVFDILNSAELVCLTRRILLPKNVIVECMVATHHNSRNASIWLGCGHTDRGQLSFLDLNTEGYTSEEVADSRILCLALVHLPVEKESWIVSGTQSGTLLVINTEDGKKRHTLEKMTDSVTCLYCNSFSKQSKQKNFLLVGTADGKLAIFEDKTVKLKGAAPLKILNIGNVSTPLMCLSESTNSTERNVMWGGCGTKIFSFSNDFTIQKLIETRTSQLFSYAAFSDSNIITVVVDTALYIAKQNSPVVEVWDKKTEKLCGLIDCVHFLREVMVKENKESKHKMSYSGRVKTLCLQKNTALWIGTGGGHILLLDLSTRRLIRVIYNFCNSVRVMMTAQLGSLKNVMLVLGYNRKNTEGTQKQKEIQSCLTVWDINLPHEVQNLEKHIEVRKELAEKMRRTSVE
The experiment is described as follows: LRRK2 G2019S Km ATP LanthaScreen assay. Particulars: 134 μM ATP (Km ATP), LRRKtide substrate, mean of several tests. It is filed as biochemical. An outline of the steps:
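IC50 values are means of repeat runs, fitted with a 4-parameter logistic to the 520/495 nm TR-FRET ratio from a Tb-labeled anti-phospho-LRRKtide antibody added with EDTA. Reactions ran 90 min at room temperature at Km ATP (134 μM) with fluorescein-LRRKtide, after 15-min compound preincubation with truncated GST-tagged G2019S LRRK2.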
For orientation: In TR-FRET formats the signal depends on donor and acceptor labels being close together.
For the compound `Cc1cc2cnc(NC(=O)C3CC3c3ccccn3)cc2cc1N1CCN(C2(C)CCOC2)CC1` (stereo not shown) [Ex-9.21], the “LRRK2 pIC50” value is on record as 10.09.

Consider `O=C(Nc1cc2cc(N3CCC(N4CC(F)(F)C4)CC3)c(Cl)cc2cn1)C1CC12CCOCC2` (stereo not shown) [Ex-4.7], for which the “LRRK2 pIC50” value came to 7.93.

For `CC(C)OC1CCC(C(=O)Nc2cc3cc(N4CCN(C5(C)COCC5O)CC4)c(Cl)cc3cn2)OC1` (stereo not shown) [Ex-9.5], the “LRRK2 pIC50” value is 8.28.

On to `O=C(Nc1cc2cc(N3CCC(N4CC(F)C4)CC3)c(Cl)cc2cn1)C1CC12CCOCC2` (stereo not shown) [Ex-4.6], for which the “LRRK2 pIC50” value is 8.61.

For “(1R,2R,3R, or 1R,2S,3R, or 1S,2R,3S, or 1S,2S,3S)-N-[7-chloro-6-[4-((3R,4R or 3S,4S)-4-fluoro-3-methyl-tetrahydrofuran-3-yl)piperazin-4-ium-1-yl]-3-isoquinolyl]-2-methyl-3-(2-pyridyl)cyclopropanecarboxamide [Ex-10.71]”, the “LRRK2 pIC50” value is 7.72.

Staying with this experiment, now noted: 134 μM ATP (Km ATP), LRRKtide substrate, mean of several tests, read-out: LRRK2 pIC50 (converted).
For the compound `CC1(C)C(C(=O)Nc2cc3cc(N4CCN(C5(C)COCC5O)CC4)c(Cl)cc3cn2)C1C1CCCCO1` (single isomer, unassigned) [Ex-10.91, (1R,2R,3R, 1R,2S,3R, or 1S,2R,3S, or 1S,2S,3S)-N-[7-chloro-6-[4-((3R,4R or 3S,4S)-4-hydroxy-3-methyl-tetrahydrofuran-3-yl)piperazin-1-yl]-3-isoquinolyl]-2,2-dimethyl-3-tetrahydropyran-2-yl-cyclopropanecarboxamide], the IC50 was 0.0813 nM.

In the case of `COC1COCC1N1CCN(c2cc3cc(NC(=O)C4CC45CCOCC5)ncc3cc2Cl)CC1` (single isomer, unassigned) [Ex-5.10], the IC50 is 38 nM.

Turning to `CC(C)(O)C1CC1C(=O)Nc1cc2cc(N3CCN(C4(C)COCC4O)CC3)c(Cl)cc2cn1` (single isomer, unassigned) [Ex-10.5], the IC50 was 4.79 nM.

On to `CC1C(C(=O)Nc2cc3cc(N4CCN(C5(C)CCOC5)CC4)c(Cl)cc3cn2)C1c1cnn(C)c1` (single isomer, unassigned) [Ex-9.9], for which the IC50 is 0.417 nM.

For `CC1(N2CCN(c3cc4cc(NC(=O)C5CC5c5cccs5)ncc4cc3Cl)CC2)COCC1O` (single isomer, unassigned) [Ex-10.14, (1R,2R or 1R,2S)-N-[7-chloro-6-[4-((3R,4R or 3S,4S)-4-hydroxy-3-methyl-tetrahydrofuran-3-yl)piperazin-1-yl]-3-isoquinolyl]-2-(2-thienyl)cyclopropanecarboxamide], the IC50 was 4.27 nM.

Take `Cc1cc2cnc(NC(=O)C3CCOC(C)(C)C3)cc2cc1N1CCN(C2(C)CCOC2)CC1` (single isomer, unassigned) [Ex-10.41, (4R or 4S)-2,2-dimethyl-N-[7-methyl-6-[4-((R or S)-3-methyltetrahydrofuran-3-yl)piperazin-1-yl]-3-isoquinolyl]tetrahydropyran-4-carboxamide]: the IC50 is 0.309 nM.

In the case of `CC1(N2CCN(c3cc4cc(NC(=O)C5CC56CCOCC6)ncc4cc3Cl)CC2)COCC1O` (single isomer, unassigned) [Ex-2.1, (R or S)-N-(7-chloro-6-(4-((3R,4R or 3S,4S)-4-hydroxy-3-methyltetrahydrofuran-3-yl)piperazin-1-yl)isoquinolin-3-yl)-6-oxaspiro[2.5]octane-1-carboxamide], the IC50 is 0.389 nM.

As for `COCC1CCC1C(=O)Nc1cc2cc(N3CCN(C4(C)COCC4O)CC3)c(Cl)cc2cn1` (single isomer, unassigned) [Ex-1.25, (1R,2S or 1R,2R, or 1S,2S, or 1S,2R)-N-(7-chloro-6-(4-((3R,4R)-4-hydroxy-3-methyltetrahydrofuran-3-yl)piperazin-1-yl)isoquinolin-3-yl)-2-(methoxymethyl)cyclobutane-1-carboxamide], the IC50 was 0.158 nM.

As to `CCc1cc2cnc(NC(=O)C3CC34CCOCC4)cc2cc1N1CCN(C2(C)COCC2O)CC1` (single isomer, unassigned) [Ex-12, (R or S)-N-(7-ethyl-6-(4-(4-(3R,4R or 3S,4S)-hydroxy-3-methyltetrahydrofuran-3-yl)piperazin-1-yl)isoquinolin-3-yl)-6-oxaspiro[2.5]octane-1-carboxamide], the IC50 is 0.525 nM.

Turning to `CCOC1CC1C(=O)Nc1cc2cc(N3CCN(C4(C)COCC4O)CC3)c(Cl)cc2cn1` (single isomer, unassigned) [Ex-10.11], the IC50 is 0.851 nM.

Turning to `C[C@]1(O)COC[C@@]1(C)N1CCN(c2cc3cc(NC(=O)[C@@H]4CC45CCOCC5)ncc3cc2Cl)CC1` (single isomer, unassigned) [Ex-17.2, (R) or (S)-N-(7-chloro-6-((3R,4R) or (3S,4S)-4-(4-hydroxy-3,4-dimethyltetrahydrofuran-3-yl)piperazin-1-yl)isoquinolin-3-yl)-6-oxaspiro[2.5]octane-1-carboxamide], the IC50 was 0.126 nM.

Consider `CC1(N2CCN(c3cc4cc(NC(=O)C5CCCOC5)ncc4cc3Cl)CC2)COCC1O` (single isomer, unassigned) [Ex-10.3, (3R or 3S)-N-(7-chloro-6-(4-((3R, 4R or 3S, 4S)-4-hydroxy-3-methyltetrahydrofuran-3-yl)piperazin-1-yl)isoquinolin-3-yl)tetrahydro-2H-pyran-3-carboxamide], for which the IC50 was 1.58 nM.

In the case of `CC1(N2CCN(c3cc4cc(NC(=O)C5CC56CCCOC6)ncc4cc3Cl)CC2)COCC1O` (single isomer, unassigned) [Ex-1.16, (1R,3S, or 1R,3R, or 1S,3S, or 1S,3R)-N-(7-chloro-6-(4-((3R,4R or 3S,4S)-4-hydroxy-3-methyltetrahydrofuran-3-yl)piperazin-1-yl)isoquinolin-3-yl)-5-oxaspiro[2.5]octane-1-carboxamide], the IC50 was 112 nM.

On to `CC1(N2CCN(c3cc4cc(NC(=O)C5CC5C(F)F)ncc4cc3Cl)CC2)COCC1F` (single isomer, unassigned) [Ex-10.75, (1R,2R or 1S,2S)-N-[7-chloro-6-[4-((3R,4R or 3S,4S)-4-fluoro-3-methyl-tetrahydrofuran-3-yl)piperazin-1-yl]-3-isoquinolyl]-2-(difluoromethyl)cyclopropanecarboxamide], for which the IC50 was 0.219 nM.

As to `Cc1cc2cnc(NC(=O)C3CCOC(C)(C)C3)cc2cc1N1CCN(C2(C)CCOC2)CC1` (single isomer, unassigned) [Ex-10.43, (4R or 4S)-2,2-dimethyl-N-[7-methyl-6-[4-((R or S)-3-methyltetrahydrofuran-3-yl)piperazin-1-yl]-3-isoquinolyl]tetrahydropyran-4-carboxamide], the IC50 is 19.5 nM.

Consider `CC1(C2CCOC2)CC1C(=O)Nc1cc2cc(N3CCN(C4(C)COCC4O)CC3)c(Cl)cc2cn1` (single isomer, unassigned) [Ex-10.83, (1R,2R or 1S,2S, or 1R,2S, or 1S,2R)-N-[7-chloro-6-[4-((3R,4R or 3S,4S)-4-hydroxy-3-methyl-tetrahydrofuran-3-yl)piperazin-1-yl]-3-isoquinolyl]-2-methyl-2-tetrahydrofuran-3-yl-cyclopropanecarboxamide], for which the IC50 was 0.525 nM.

Take `CCC1C(C(=O)Nc2cc3cc(N4CCN(C5(C)COCC5F)CC4)c(Cl)cc3cn2)C1c1ccn(C)n1` (single isomer, unassigned) [Ex-10.50, (1R,2R,3R, 1R,2S,3R, or 1S,2R,3S, or 1S,2S,3S)-N-[7-chloro-6-[4-((3R,4R or 3S,4S)-4-fluoro-3-methyl-tetrahydrofuran-3-yl)piperazin-1-yl]-3-isoquinolyl]-2-ethyl-3-(1-methylpyrazol-3-yl)cyclopropanecarboxamide]: the IC50 was 0.0813 nM.

The values are drawn from patent publication US12516039B2, “N-linked isoquinoline amides as LRRK2 inhibitors, pharmaceutical compositions, and uses thereof” (Merck Sharp & Dohme LLC, priority 2020, dated 2026).
